Data as given in PubChem BioAssay AID330 (DTP/NCI, 2004).
Several values for one entry are separate records, joined by “and”; a condition that tells them apart may be missing. Identical values can stand only once. Toxic doses and inconclusive results are not listed.

Tested on: P388 leukemia ip, CD2F1 mice, survival T/C
Assay: NCI In Vivo Anticancer Drug Screen. Data for tumor model P388 Leukemia (intraperitoneal) in CD2F1 (CDF1) mice
Settings: endpoint: median survival time, higher = longer survival
In short: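 Mice carrying the transplanted tumor received test compound or vehicle. Survival was recorded in each group, and the value is the treated-group measurement divided by that of the vehicle-treated control group.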

[1] = dose: 50.0 mg/kg/injection, schedule: Q01DX009 (ip), vehicle: saline
[2] = dose: 100.0 mg/kg/injection, schedule: Q01DX009 (ip), vehicle: saline
[3] = dose: 100.0 mg/kg/injection, schedule: Q01DX001 (ip), vehicle: saline with Tween-80
[4] = dose: 200.0 mg/kg/injection, schedule: Q01DX001 (ip), vehicle: saline with Tween-80
[5] = dose: 60.0 mg/kg/injection, schedule: Q01DX005 (ip), vehicle: saline with Tween-80
[6] = dose: 100.0 mg/kg/injection, schedule: Q04DX002 (ip), vehicle: saline with Tween-80
[7] = dose: 200.0 mg/kg/injection, schedule: Q04DX002 (ip), vehicle: saline with Tween-80
[8] = dose: 100.0 mg/kg/injection, schedule: Q01DX009 (ip), vehicle: saline with Tween-80
[9] = dose: 3.12 mg/kg/injection, schedule: Q01DX005 (ip), vehicle: Klucel (hydroxypropylcellulose) (HPC)
[10] = dose: 6.25 mg/kg/injection, schedule: Q01DX005 (ip), vehicle: Klucel (hydroxypropylcellulose) (HPC)
[11] = dose: 12.5 mg/kg/injection, schedule: Q01DX005 (ip), vehicle: Klucel (hydroxypropylcellulose) (HPC)

CN(C)c1ccc(/C=C2/CCC2=O)cc1
T/C (dose: 100.0 mg/kg/injection, schedule: Q04DX003 (ip), vehicle: Klucel (hydroxypropylcellulose) (HPC)): 96 % of control
T/C (dose: 200.0 mg/kg/injection, schedule: Q04DX003 (ip), vehicle: Klucel (hydroxypropylcellulose) (HPC)): 97 % of control
T/C (dose: 400.0 mg/kg/injection, schedule: Q04DX003 (ip), vehicle: Klucel (hydroxypropylcellulose) (HPC)): 95 % of control

O=c1cccc(O)[nH]1
T/C [1]: 109 % of control and 94 % of control
T/C [2]: 100 % of control and 93 % of control

Cc1nc(CC#N)c(C(N)=O)c(Nc2ccccc2)n1
T/C [3]: 92 % of control
T/C [4]: 92 % of control
T/C (dose: 400.0 mg/kg/injection, schedule: Q01DX001 (ip), vehicle: saline with Tween-80): 111 % of control

Cc1ccc(C)c(C(O)(c2cc(C)ccc2C)C2(O)CCCCC2)c1
T/C (dose: 50.0 mg/kg/injection, schedule: Q01DX005 (ip), vehicle: saline with Tween-80): 106 % of control
T/C (dose: 100.0 mg/kg/injection, schedule: Q01DX005 (ip), vehicle: saline with Tween-80): 103 % of control
T/C (dose: 200.0 mg/kg/injection, schedule: Q01DX005 (ip), vehicle: saline with Tween-80): 97 % of control

O=C(O)c1ccccc1.O=C(O)c1ccccc1.O=C(O)c1ccccc1.O=C(O)c1ccccc1.[Cu].[Cu]
T/C (dose: 7.5 mg/kg/injection, schedule: Q01DX005 (ip), vehicle: Klucel (hydroxypropylcellulose) (HPC)): 99 % of control
T/C (dose: 15.0 mg/kg/injection, schedule: Q01DX005 (ip), vehicle: Klucel (hydroxypropylcellulose) (HPC)): 97 % of control

CC(/C=N\Nc1ccc(Cl)c(Cl)c1)=N/NC(=O)C[n+]1ccccc1
T/C (dose: 25.0 mg/kg/injection, schedule: Q04DX002 (ip), vehicle: saline): 108 % of control
T/C (dose: 50.0 mg/kg/injection, schedule: Q04DX002 (ip), vehicle: saline): 104 % of control
T/C (dose: 100.0 mg/kg/injection, schedule: Q04DX002 (ip), vehicle: saline): 102 % of control and 92 % of control

C[CH](C)[Sn](=[O])[CH](C)C
T/C (dose: 0.78 mg/kg/injection, schedule: Q01DX009 (ip), vehicle: saline): 113 % of control
T/C (dose: 1.56 mg/kg/injection, schedule: Q01DX009 (ip), vehicle: saline): 106 % of control
T/C (dose: 3.12 mg/kg/injection, schedule: Q01DX009 (ip), vehicle: saline): 107 % of control

Cc1cccc(NC(=O)Oc2ccc(Cl)cc2C(=O)c2ccccc2)c1
T/C [5]: 97 % of control
T/C (dose: 120.0 mg/kg/injection, schedule: Q01DX005 (ip), vehicle: saline with Tween-80): 98 % of control
T/C (dose: 240.0 mg/kg/injection, schedule: Q01DX005 (ip), vehicle: saline with Tween-80): 105 % of control

OC[C@@H](O)C[C@H](CO)Cc1ccc2c(c1)OCO2
T/C (dose: 50.0 mg/kg/injection, schedule: Q04DX002 (ip), vehicle: saline with Tween-80): 96 % of control
T/C [6]: 87 % of control
T/C [7]: 99 % of control

CCOc1cc2c(cc1C(CC)c1ccc(O)cc1)OCO2 (configuration not stated)
T/C (dose: 50.0 mg/kg/injection, schedule: Q01DX005 (ip), vehicle: distilled water + Tween-80): 93 % of control
T/C (dose: 100.0 mg/kg/injection, schedule: Q01DX005 (ip), vehicle: distilled water + Tween-80): 93 % of control
T/C (dose: 200.0 mg/kg/injection, schedule: Q01DX005 (ip), vehicle: distilled water + Tween-80): 96 % of control

Nc1ccccc1-c1cncnc1N
T/C [8]: 98 % of control
T/C (dose: 200.0 mg/kg/injection, schedule: Q01DX009 (ip), vehicle: saline with Tween-80): 101 % of control
T/C (dose: 400.0 mg/kg/injection, schedule: Q01DX009 (ip), vehicle: saline with Tween-80): 106 % of control

Nc1ccn(COCCOCc2ccccc2)c(=O)n1
T/C (dose: 100.0 mg/kg/injection, schedule: Q04DX002 (ip), vehicle: Klucel (hydroxypropylcellulose) (HPC)): 98 % of control
T/C (dose: 200.0 mg/kg/injection, schedule: Q04DX002 (ip), vehicle: Klucel (hydroxypropylcellulose) (HPC)): 100 % of control
T/C (dose: 400.0 mg/kg/injection, schedule: Q04DX002 (ip), vehicle: Klucel (hydroxypropylcellulose) (HPC)): 99 % of control

C=C1C(=O)OC2C=CCCC12 (configuration not stated)
T/C (dose: 12.5 mg/kg/injection, schedule: Q01DX009 (ip), vehicle: water): 101 % of control
T/C (dose: 25.0 mg/kg/injection, schedule: Q01DX009 (ip), vehicle: water): 103 % of control
T/C (dose: 50.0 mg/kg/injection, schedule: Q01DX009 (ip), vehicle: water): 106 % of control
T/C (dose: 100.0 mg/kg/injection, schedule: Q01DX009 (ip), vehicle: water): 118 % of control

O=Cc1c(-c2ccccc2)sc2ccccc2c1=O
T/C [6]: 113 % of control
T/C [7]: 98 % of control
T/C (dose: 400.0 mg/kg/injection, schedule: Q04DX002 (ip), vehicle: saline with Tween-80): 109 % of control

O=c1c2cc3c(cc2c2cccc4ccn1c42)OCO3
T/C (dose: 4.5 mg/kg/injection, schedule: Q01DX009 (ip), vehicle: Klucel (hydroxypropylcellulose) (HPC)): 105 % of control
T/C (dose: 9.0 mg/kg/injection, schedule: Q01DX009 (ip), vehicle: Klucel (hydroxypropylcellulose) (HPC)): 115 % of control
T/C (dose: 18.0 mg/kg/injection, schedule: Q01DX009 (ip), vehicle: Klucel (hydroxypropylcellulose) (HPC)): 107 % of control
T/C (dose: 36.0 mg/kg/injection, schedule: Q01DX009 (ip), vehicle: Klucel (hydroxypropylcellulose) (HPC)): 104 % of control

C1CCC2CC3CCCCN3COC2CC1 (configuration not stated)
T/C (dose: 50.0 mg/kg/injection, schedule: Q01DX005 (ip), vehicle: saline): 116 % of control
T/C (dose: 100.0 mg/kg/injection, schedule: Q01DX005 (ip), vehicle: saline): 118 % of control

CS(=O)(=O)OCCN(CCOS(C)(=O)=O)c1ccc(/C=N/Nc2ncnc3nc[nH]c23)cc1
T/C (dose: 50.0 mg/kg/injection, schedule: Q01DX009 (ip), vehicle: saline with Tween-80): 172 % of control
T/C (dose: 66.0 mg/kg/injection, schedule: Q04DX003 (ip), vehicle: saline with Tween-80): 177 % of control
T/C [8]: 181 % of control
T/C (dose: 100.0 mg/kg/injection, schedule: Q04DX003 (ip), vehicle: saline with Tween-80): 177 % of control
T/C (dose: 150.0 mg/kg/injection, schedule: Q04DX003 (ip), vehicle: saline with Tween-80): 195 % of control

NNc1ccc2cccc([N+](=O)[O-])c2n1
T/C (dose: 25.0 mg/kg/injection, schedule: Q01DX009 (ip), vehicle: other): 106 % of control
T/C (dose: 50.0 mg/kg/injection, schedule: Q01DX009 (ip), vehicle: other): 100 % of control
T/C (dose: 100.0 mg/kg/injection, schedule: Q01DX009 (ip), vehicle: other): 100 % of control

C#CC(C)C(C(C)=O)C(C)=O.[C-]#[O+].[C-]#[O+].[C-]#[O+].[C-]#[O+].[C-]#[O+].[C-]#[O+].[Co].[Co] (configuration not stated)
T/C [9]: 104 % of control
T/C [10]: 94 % of control
T/C [11]: 111 % of control

CC(C)(C)c1cc2c3c(c1)Oc1cc(C(C)(C)C)cc4c1C3(O)c1c(cc(C(C)(C)C)cc1O4)O2
T/C (dose: 1.56 mg/kg/injection, schedule: Q01DX005 (ip), vehicle: Klucel (hydroxypropylcellulose) (HPC)): 107 % of control
T/C [9]: 104 % of control and 108 % of control
T/C [10]: 101 % of control and 110 % of control and 118 % of control
T/C [11]: 107 % of control and 111 % of control and 120 % of control
T/C (dose: 25.0 mg/kg/injection, schedule: Q01DX005 (ip), vehicle: Klucel (hydroxypropylcellulose) (HPC)): 102 % of control

CNP1(NC)=N[P@@](NC)(N2CC2)=NP(NC)(N2CC2)=N1 (some centres not stated)
T/C (dose: 1.87 mg/kg/injection, schedule: Q01DX005 (ip), vehicle: saline): 102 % of control
T/C (dose: 7.5 mg/kg/injection, schedule: Q01DX005 (ip), vehicle: saline): 158 % of control and 185 % of control
T/C (dose: 15.0 mg/kg/injection, schedule: Q01DX005 (ip), vehicle: saline): 171 % of control and 227 % of control

Nc1nc(N)c2c(ccc3nc(-c4ccccc4)c(-c4ccccc4)nc32)n1
T/C [3]: 87 % of control
T/C [4]: 90 % of control

O=C(CCCc1ccc(N(CCCl)CCCl)cc1)NCC(O)C(O)C(O)C(O)CO (configuration not stated)
T/C (dose: 15.0 mg/kg/injection, schedule: Q01DX005 (ip), vehicle: saline with Tween-80): 187 % of control
T/C (dose: 30.0 mg/kg/injection, schedule: Q01DX005 (ip), vehicle: saline with Tween-80): 201 % of control and 206 % of control
T/C [5]: 235 % of control and 250 % of control

c1ccc2sc(SCCCCCCCCCCCCSc3nc4ccccc4s3)nc2c1
T/C (dose: 50.0 mg/kg/injection, schedule: Q01DX005 (ip), vehicle: Klucel + Tween-80): 98 % of control
T/C (dose: 100.0 mg/kg/injection, schedule: Q01DX005 (ip), vehicle: Klucel + Tween-80): 94 % of control
T/C (dose: 200.0 mg/kg/injection, schedule: Q01DX005 (ip), vehicle: Klucel + Tween-80): 96 % of control

CCOC(=O)CC1(C)NCCS1 (configuration not stated)
T/C [1]: 96 % of control
T/C [2]: 99 % of control
T/C (dose: 200.0 mg/kg/injection, schedule: Q01DX009 (ip), vehicle: saline): 96 % of control
